Consider 25 compounds from patent US10442763B2, “EBNA1 inhibitors and methods using same” (priority 2015, dated 2019).

T1 sequence (P03211 459-607): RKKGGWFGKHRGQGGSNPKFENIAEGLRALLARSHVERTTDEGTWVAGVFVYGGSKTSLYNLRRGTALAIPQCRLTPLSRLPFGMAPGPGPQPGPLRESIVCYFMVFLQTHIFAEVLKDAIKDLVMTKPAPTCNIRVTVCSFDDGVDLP

The assay has as its target T1, His-EBNA1 (DNA binding domain of EBNA1, amino acids 459-607) (Epstein-Barr virus, UniProt P03211).
T1 construct: made in house; host or cells: E. coli
In words: Inhibition of 5'-biotin-oPL4624 binding to His-EBNA1 using Alpha Screen technology. In outline: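 AlphaScreen with 15 nM E. coli-expressed His-EBNA1 (aa 459-607), 0.2 nM biotinylated oPL4624 DNA and 5 μg/mL donor and acceptor beads in 25 mM Tris pH 7.2, 160 mM NaCl, 1 mM MgCl2; compound 3.2 nM–100 μM final. Read after 2 h at RT; inhibition normalised to no-EBNA1 wells, one-site dose-response fit.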
In general terms: In Alpha technology, singlet oxygen from a donor bead excites a nearby acceptor bead.
Broadly, the IC50 is the concentration needed to halve the response being measured. Higher therefore signals lower potency. `Nc1cc(-c2cccc(C#Cc3cccc(C(=O)O)c3-c3ccc4cc[nH]c4c3)c2)n[nH]1` [Entry 106] gave an IC50 of 1 to 10 µM.
The figure for `CS(=O)(=O)N1CCC(N2Cc3ccc(C#Cc4cccc(C(=O)O)c4-c4ccc5cc[nH]c5c4)cc3C2)C1` (stereo not shown) [Entry 68] is 1 to 10 µM; for `CC(C)S(=O)(=O)N1CCc2cc(C#Cc3cccc(C(=O)O)c3-c3ccc4cc[nH]c4c3)ccc2C1` [Entry 77] it is 1 to 10 µM.
The compound `CN1CCCN(Cc2ccc(C#Cc3cccc(C(=O)O)c3-c3ccc4cc[nH]c4c3)cc2)CC1` [Entry 152] showed an IC50 of 1 to 10 µM.
Under `COC1CCN(Cc2ccc(C#Cc3cccc(C(=O)O)c3-c3cnc4[nH]ccc4c3)cc2)CC1` [Entry 177] stands 100 to 1000 µM; under `Nc1nc2c(s1)C[C@@H](NC(=O)c1ccc(C#Cc3cccc(C(=O)O)c3-c3ccc4cc[nH]c4c3)cc1)CC2` [Entry 200], 1 to 10 µM.
For `CS(=O)(=O)Nc1nc(-c2ccc(C#Cc3cccc(C(=O)O)c3-c3ccc4cc[nH]c4c3)cc2)cs1` [Entry 131], the IC50 is less than 1 µM.
Under `N#Cc1ccccc1OCc1ccc(C#Cc2cccc(C(=O)O)c2-c2ccc3cc[nH]c3c2)cc1` [Entry 94] stands 1 to 10 µM; under `O=C(O)c1cccc(C#Cc2ccc3ccn(CC4CCS(=O)(=O)CC4)c3c2F)c1-c1ccc2cc[nH]c2c1` [Entry 37], 1 to 10 µM; under `CS(=O)(=O)N1CCN(Cc2ccc(C#Cc3cccc(C(=O)O)c3-c3cnc4[nH]ccc4c3)cc2)CC1` [Entry 180], 1 to 10 µM.
Under `O=C(O)c1cccc(C#Cc2ccc(COC3CCS(=O)(=O)CC3)cc2F)c1-c1ccc2cc[nH]c2c1` [Entry 187] stands 10 to 100 µM; under `O=C(O)c1cccc(C#Cc2ccc(C(=O)C3CCOCC3)cc2)c1-c1ccc2cc[nH]c2c1` [Entry 108], 1 to 10 µM.
Under `O=C(O)c1cccc(C#Cc2ccc(COC3CCS(=O)(=O)CC3)cc2)c1-c1ccc2cc[nH]c2c1` [Entry 26] stands 10 to 100 µM; under `O=C(O)c1cccc(C#Cc2cc3c(CN4CCOCC4)c[nH]c3cc2F)c1-c1ccc2cc[nH]c2c1` [Entry 40], 10 to 100 µM.
Consider `O=C(O)c1cccc(C#Cc2ccc(CN3CCc4ccccc4C3)cc2)c1-c1ccc2cc[nH]c2c1` [Entry 160], for which the IC50 was in the range of 1 to 10 µM.
Under `O=C(O)c1cccc(C#Cc2ccc3ccn(CCN4CCOCC4)c3c2)c1-c1ccc2cc[nH]c2c1` [Entry 1] stands 10 to 100 µM; under `O=C(O)c1cccc(C#Cc2ccc(C3(CO)COC3)cc2)c1-c1ccc2cc[nH]c2c1` [Entry 105], 1 to 10 µM; under `CC(C)(C)OC(=O)N1CCC2(CC1)CC(=O)c1cc(C#Cc3cccc(C(=O)O)c3-c3ccc4cc[nH]c4c3)ccc1O2` [Entry 124], 1 to 10 µM.
Under `O=C(O)c1cccc(C#Cc2ccc3[nH]c(CN4CCS(=O)(=O)CC4)nc(=O)c3c2)c1-c1ccc2cc[nH]c2c1` [Entry 134] stands 1 to 10 µM; under `O=C(O)c1cccc(C#Cc2cc3ccn(CC4CCS(=O)(=O)CC4)c3cc2F)c1-c1ccc2cc[nH]c2c1` [Entry 38], 1 to 10 µM; under `O=C(O)c1cccc(C#Cc2cnc3c(ccn3CC3CCOCC3)c2)c1-c1ccc2cc[nH]c2c1` [Entry 17], 1 to 10 µM.
Under `CC(=O)N1Cc2ccc(C#Cc3cccc(C(=O)O)c3-c3ccc4cc[nH]c4c3)cc2C1` [Entry 56] stands 1 to 10 µM.
In turn, `COc1cccc(C)c1NC(=O)c1cccc(C#Cc2cccc(C(=O)O)c2-c2ccc3cc[nH]c3c2)c1` [Entry 137] yielded an IC50 of 1 to 10 µM.
The figure for `CN(C)CCn1ccc2cc(C#Cc3cccc(C(=O)O)c3-c3ccc4cc[nH]c4c3)cnc21` [Entry 4] is 1 to 10 µM; for `COC1CCN(Cc2ccc(C#Cc3cccc(C(=O)O)c3-c3ccc4[nH]ccc4c3)cc2)CC1` [Entry 178] it is 10 to 100 µM.
